Measurements from patent publication US8569229B2, “Compositions and methods which modulate G-protein signaling for the treatment of inflammatory disorders such as asthma and allergic conjunctivitis” (The Children's Hospital of Philadelphia, priority 2008, dated 2013).
“Also recorded” adds a separate entry of the source. Ends that are not written are not given here.

Key:
[1] = test system: rabbit ASM tissues; assay: Relaxation responsiveness to isoproterenol in isolated rabbit ASM tissues half-maximally contracted with ACh; conditions: for effect of pretreatment on PGE2-induced impaired relaxation to isoproterenol: PGE2 100 nM x 24 hr; for relaxation responses to isoproterenol in control serum-exposed tissues pretreated with the agent: control (non-asthmatic) serum, 24 hr; for effect of pretreatment on salmeterol-induced impaired relaxation to isoproterenol: salmeterol 10 μM x 24 hr
[2] = test system: OVA-sensitized rabbits; assay: In vivo bronchoconstrictor responses to methacholine (Rrs) in OVA-sensitized, OVA-challenged rabbits; set-up: species or system rabbit; conditions: 1 mg/Kg by nebulizer 2 hr prior to OVA challenge, measured 24 hr after challenge
Protocol: (§1) Both the OVA sensitized and control animals were then challenged with either vehicle (saline) or aerosolized OVA delivered via a nebulizer. The following day, while mechanically ventilated under general anesthesia/paralysis, the rabbits' broncho-constrictor responses to intravenous (i.v.) bolus injections of cumulatively increasing doses of methacholine (MCh) were determined and induced changes in respiratory system resistance (Rrs), measured as previously described (Grunstein et al. J. Appl. Physiol: […]. Environ. Exercise Physiol. 57:1238-1246, 1984). Lung lavage was then performed to obtain bronchoalveolar lavage fluid (BALF) samples, and the lungs were excised for histological examination in H&E-stained paraffin-embedded 4 micron sections.

[3] = test system: human ASM cells; assay: Assay of cAMP PDE activity in ASM cell lysates; type: cell-based; conditions: for effect of pretreatment on PGE2-induced increase in PDE activity: PGE2 100 nM x 24 hr, peptides 30 μM (Example III)
[4] = test system: OVA-sensitized rabbits; assay: Lung histopathology in OVA-sensitized, OVA-challenged rabbits; type: in vivo, rabbit; conditions: pretreated OVA-sensitized+OVA challenged rabbits
Protocol: as §1

[5] = test system: OVA-sensitized rabbits; assay: IL-13 and IFN-γ in BALF samples of OVA-sensitized, OVA-challenged rabbits; type: in vivo, rabbit; conditions: pretreated OVA-sensitized+OVA challenged rabbits
Protocol: In vivo studies were conducted wherein adult NZW rabbits were initially sensitized with weekly intra-peritoneal (i.p.) injections of 2.5 mg OVA and 10 mg of alum adjuvant for 4-5 weeks, and non-sensitized (control) rabbits received alum alone. Both the OVA sensitized and control animals were then challenged with either vehicle (saline) or aerosolized OVA delivered via a nebulizer. The following day, while mechanically ventilated under general anesthesia/paralysis, the rabbits' broncho-constrictor responses to intravenous (i.v.) bolus injections of cumulatively increasing doses of methacholine (MCh) were determined and induced changes in respiratory system resistance (Rrs), measured as previously described (Grunstein et al. J. Appl. Physiol: Respirat. Environ. Exercise Physiol. 57:1238-1246, 1984). Lung lavage was then performed to obtain bronchoalveolar lavage fluid (BALF) samples, and the lungs were excised for histological examination in H&E-stained paraffin-embedded 4 micron sections.

[6] = test system: rabbit ASM tissues; assay: Constrictor responsiveness to acetylcholine (ACh) in isolated rabbit ASM tissues, isometric tension in organ bath; conditions: for effect of pretreatment on PGE2-induced increase in constrictor responsiveness to ACh: PGE2 100 nM x 24 hr; for effect of pretreatment on salmeterol-induced increase in constrictor responsiveness to ACh: salmeterol 10 μM x 24 hr
[7] = listed as Gβγ inhibitory peptide
[8] = listed as anti-Gβγ cell-permeable inhibitory peptide
[9] = listed as MPS-conjugated anti-Gβγ peptide
[10] = vehicle-exposed control tissues

## MPS-Phosducin-like protein C terminus (AAVALLPAVLLALLAVTDQLGEDFFAVDLEAFLQEFGLLPEKE; also: MPS attached) [anti-Gβγ peptide]
[1]; [7]
  effect of pretreatment on PGE2-induced impaired relaxation to isoproterenol: prevents
  relaxation responses to isoproterenol in control serum-exposed tissues pretreated with the agent: enhances
[1]; [8]
  effect of pretreatment on PGE2-induced impaired relaxation to isoproterenol: prevented
[1]; listed as Gβγ-inhibitory peptide
  relaxation responses to isoproterenol in control serum-exposed tissues pretreated with the agent: somewhat increased
[1]
  effect of pretreatment on salmeterol-induced impaired relaxation to isoproterenol: prevented
[1]; [9]
  effect of pretreatment on salmeterol-induced impaired relaxation to isoproterenol: ablated
[1]; tissues passively sensitized 24 hr with AS rabbit serum
  effect of pretreatment on impaired relaxation to isoproterenol in allergic asthmatic (AS) serum-exposed tissues: prevented
[1]; [10]
  effect of the agent alone on relaxation responses to isoproterenol: no significant effect
[2]
  effect on airway constrictor hyper-responsiveness (Rrs responses to MCh): largely abrogated
[2]; listed as MPS-conjugated anti-G βγ peptide
  effect on airway constrictor hyper-responsiveness (Rrs responses to MCh): prevented to a similar degree
[3]; [7]
  effect of pretreatment on PGE2-induced increase in PDE activity: completely ablated
[3]; [8]
  effect of pretreatment on PGE2-induced increase in PDE activity: completely abrogated
[3]; salmeterol or isoproterenol 10 μM x 24 hr
  effect of pretreatment on salmeterol- and isoproterenol-induced increase in PDE activity: completely abrogated; also recorded: ablated
[4]
  effect on pulmonary inflammatory response (peribronchial and parenchymal inflammatory cell infiltration): markedly suppressed to a similar extent; also recorded: markedly suppresses
[5]
  effect on OVA challenge-induced decrease in BALF IFN-γ: prevents
  effect on OVA challenge-induced increase in BALF IL-13: prevents
[6]; [7]
  effect of pretreatment on PGE2-induced increase in constrictor responsiveness to ACh: prevents
[6]; [8]
  effect of pretreatment on PGE2-induced increase in constrictor responsiveness to ACh: prevented
[6]
  effect of pretreatment on salmeterol-induced increase in constrictor responsiveness to ACh: prevented
[6]; [9]
  effect of pretreatment on salmeterol-induced increase in constrictor responsiveness to ACh: ablated
[6]; [10]
  effect of the agent alone on constrictor responses to ACh: no significant effect
